# Results from PMC6104039 (Nature Communications, 2018).
# “And” between values parts separate entries of the source, which are not always exact repeats. Equal values may be shown once.
# Test system: HEK293 cells
# Experiment: Endogenous ceramide, HexCer and SM levels in cells treated 24 h, targeted LC-MS/MS
# Assay type: cell-based
# Parameters: Cer 18:1/24:0 content in HEK293 cells / Cer 18:1/24:1 content in HEK293 cells / HexCer 18:1/16:0 content in HEK293 cells / HexCer 18:1/18:0 content in HEK293 cells / HexCer 18:1/20:0 content in HEK293 cells / HexCer 18:1/22:0 content in HEK293 cells / Cer 18:1/16:0 content in HEK293 cells / Cer 18:1/18:0 content in HEK293 cells / Cer 18:1/20:0 content in HEK293 cells / Cer 18:1/22:0 content in HEK293 cells: unit not given here
# Experimental: Lipids were then extracted using MTBE/methanol/water as described above.
# HEK293 cell culture experiment: Levels of each lipid in P053-treated HEK293 cells were normalised to the mean of the vehicle control group, and each concentration was compared to the control using ANOVA with Dunnett’s post-test. P values were adjusted for multiple comparisons in GraphPad PRISM.
# Supplementary Figure 1. Ceramide, SM, and HexCer levels in HEK293 cells treated with
# P053. Absolute lipid levels were determined by targeted LC-MS/MS, relative to external
# standard curves. Results are mean ± SEM (n = 4) from one of two identical experiments.
# Statistically significant results, based on two independent experiments, are as indicated in
# Figure 2b-d. Raw data for these figures is provided in Supplementary Data File 1.
# [1] = HEK293 cells, 24 h, P053 300 nM
# [2] = P053 10 nM, replicates, raw data Suppl Fig 1
smiles,measurement,setting,value
"C[C@@](N)(CO)CCc1ccc(OCc2ccc(Cl)c(Cl)c2)cc1 [P053, (S)-2-amino-4-(4-(3,4-dichlorobenzyloxy)phenyl)-2-methylbutan-1-ol]",16:0 SM level,[1],91.5762 percentage of the vehicle control group and 97.3304 percentage of the vehicle control group and 95.7086 percentage of the vehicle control group and 90.4865 percentage of the vehicle control group and 94.7045 percentage of the vehicle control group and 94.6107 percentage of the vehicle control group and 97.4329 percentage of the vehicle control group
same,16:1 SM level,[1],95.4131 percentage of the vehicle control group and 93.1931 percentage of the vehicle control group and 97.1412 percentage of the vehicle control group and 89.2518 percentage of the vehicle control group and 106.305 percentage of the vehicle control group and 110.099 percentage of the vehicle control group and 114.576 percentage of the vehicle control group
same,18:0 Cer level,[1],21.4642 percentage of the vehicle control group and 24.1123 percentage of the vehicle control group and 20.5881 percentage of the vehicle control group and 19.7155 percentage of the vehicle control group and 31.2852 percentage of the vehicle control group and 28.1026 percentage of the vehicle control group and 22.7669 percentage of the vehicle control group
same,18:0 HexCer level,[1],20.413 percentage of the vehicle control group and 33.7976 percentage of the vehicle control group and 27.9895 percentage of the vehicle control group and 24.1749 percentage of the vehicle control group and 31.4424 percentage of the vehicle control group and 25.6474 percentage of the vehicle control group and 28.2273 percentage of the vehicle control group
same,18:0 SM level,[1],51.9053 percentage of the vehicle control group and 55.6537 percentage of the vehicle control group and 52.9265 percentage of the vehicle control group and 58.2406 percentage of the vehicle control group and 58.0965 percentage of the vehicle control group and 68.5828 percentage of the vehicle control group
same,18:1 SM level,[1],49.0849 percentage of the vehicle control group and 55.9252 percentage of the vehicle control group and 57.6407 percentage of the vehicle control group and 49.9379 percentage of the vehicle control group and 59.4579 percentage of the vehicle control group and 65.5511 percentage of the vehicle control group and 62.889 percentage of the vehicle control group
same,20:0 Cer level,[1],93.6887 percentage of the vehicle control group and 101.721 percentage of the vehicle control group and 118.09 percentage of the vehicle control group and 85.7665 percentage of the vehicle control group and 100.615 percentage of the vehicle control group and 64.6288 percentage of the vehicle control group and 92.3762 percentage of the vehicle control group
same,20:0 SM level,[1],118.407 percentage of the vehicle control group and 108.075 percentage of the vehicle control group and 104.904 percentage of the vehicle control group and 101.736 percentage of the vehicle control group and 91.4298 percentage of the vehicle control group and 108.941 percentage of the vehicle control group and 75.5566 percentage of the vehicle control group
same,22:0 Cer level,[1],118.325 percentage of the vehicle control group and 95.8434 percentage of the vehicle control group and 96.1691 percentage of the vehicle control group and 93.2377 percentage of the vehicle control group and 117.011 percentage of the vehicle control group and 126.355 percentage of the vehicle control group and 127.853 percentage of the vehicle control group
same,22:0 HexCer level,[1],109.712 percentage of the vehicle control group and 101.896 percentage of the vehicle control group and 93.6786 percentage of the vehicle control group and 100.98 percentage of the vehicle control group and 134.335 percentage of the vehicle control group and 123.952 percentage of the vehicle control group and 138.922 percentage of the vehicle control group
same,22:0 SM level,[1],115.888 percentage of the vehicle control group and 97.5579 percentage of the vehicle control group and 89.8927 percentage of the vehicle control group and 119.666 percentage of the vehicle control group and 127.143 percentage of the vehicle control group and 125.883 percentage of the vehicle control group and 147.638 percentage of the vehicle control group
same,22:1 SM level,[1],108.27 percentage of the vehicle control group and 122.085 percentage of the vehicle control group and 110.7 percentage of the vehicle control group and 101.001 percentage of the vehicle control group and 122.515 percentage of the vehicle control group and 112.931 percentage of the vehicle control group and 116.965 percentage of the vehicle control group
same,24:0 HexCer level,[1],104.713 percentage of the vehicle control group and 95.2413 percentage of the vehicle control group and 95.3365 percentage of the vehicle control group and 92.7673 percentage of the vehicle control group and 114.448 percentage of the vehicle control group and 102.627 percentage of the vehicle control group and 132.114 percentage of the vehicle control group
same,24:0 SM level,[1],113.274 percentage of the vehicle control group and 99.4416 percentage of the vehicle control group and 98.6316 percentage of the vehicle control group and 91.5407 percentage of the vehicle control group and 114.934 percentage of the vehicle control group and 115.44 percentage of the vehicle control group and 155.315 percentage of the vehicle control group
same,24:1 Cer level,[1],111.319 percentage of the vehicle control group and 96.194 percentage of the vehicle control group and 99.387 percentage of the vehicle control group and 100.62 percentage of the vehicle control group and 125.506 percentage of the vehicle control group and 116.048 percentage of the vehicle control group and 122.55 percentage of the vehicle control group
same,24:1 HexCer level,[1],99.7739 percentage of the vehicle control group and 98.9226 percentage of the vehicle control group and 100.626 percentage of the vehicle control group and 98.0727 percentage of the vehicle control group and 98.7766 percentage of the vehicle control group and 107.494 percentage of the vehicle control group and 117.137 percentage of the vehicle control group
same,24:1 SM level,[1],105.1 percentage of the vehicle control group and 102.826 percentage of the vehicle control group and 108.435 percentage of the vehicle control group and 97.4023 percentage of the vehicle control group and 115.741 percentage of the vehicle control group and 108.576 percentage of the vehicle control group and 128.227 percentage of the vehicle control group
same,Cer 18:1/16:0 content in HEK293 cells,[2],22.4895 and 20.1065 and 20.2227 and 20.5646
same,Cer 18:1/18:0 content in HEK293 cells,[2],6.1592 and 6.073 and 6.699 and 5.451
same,Cer 18:1/20:0 content in HEK293 cells,[2],0.6713 and 0.9209 and 0.7221 and 0.8599
same,Cer 18:1/22:0 content in HEK293 cells,[2],56.12 and 63.3729 and 65.2079 and 63.3152
